Earlier results, collected in patent US20030212274A1, “Novel amorphous form of omeprazole salts” (priority 2003, published 2003).
Where two headings read alike, the source gives them in different places.

Key:
[1] = storage at +37° C., relative humidity 80%, 6 months (accelerated conditions)

**Q.** What does the source list for COc1ccc2[nH]c([S+]([O-])Cc3ncc(C)c(OC)c3C)nc2c1 (stereo not drawn) [Omeprazole, 5-methoxy-2-[(4-methoxy-3,5-dimethyl-2-pyridinyl)-methyl]sulfinyl-1H-benzimidazole]?
**A.** half-life of degradation in water solutions (pH-values less than four): ten; half-life of degradation in water solutions (pH=7): about 14 hours; substance converted to degradation products [1]: about 6%
